For 10 compounds, Kd results are on record in ChEMBL document CHEMBL3991601, “The target landscape of clinical kinase drugs” (Science, 2017).

Activity calls are given as the source filed them. Cut-off read from the data, not from the text of the source, for most assays here: actives have a measured Kd and inactives only a lower limit.

In assay [1] the target is T1, Mitogen-activated protein kinase kinase kinase 3 (Homo sapiens, UniProt Q99759).
T1 sequence (Q99759 whole entry): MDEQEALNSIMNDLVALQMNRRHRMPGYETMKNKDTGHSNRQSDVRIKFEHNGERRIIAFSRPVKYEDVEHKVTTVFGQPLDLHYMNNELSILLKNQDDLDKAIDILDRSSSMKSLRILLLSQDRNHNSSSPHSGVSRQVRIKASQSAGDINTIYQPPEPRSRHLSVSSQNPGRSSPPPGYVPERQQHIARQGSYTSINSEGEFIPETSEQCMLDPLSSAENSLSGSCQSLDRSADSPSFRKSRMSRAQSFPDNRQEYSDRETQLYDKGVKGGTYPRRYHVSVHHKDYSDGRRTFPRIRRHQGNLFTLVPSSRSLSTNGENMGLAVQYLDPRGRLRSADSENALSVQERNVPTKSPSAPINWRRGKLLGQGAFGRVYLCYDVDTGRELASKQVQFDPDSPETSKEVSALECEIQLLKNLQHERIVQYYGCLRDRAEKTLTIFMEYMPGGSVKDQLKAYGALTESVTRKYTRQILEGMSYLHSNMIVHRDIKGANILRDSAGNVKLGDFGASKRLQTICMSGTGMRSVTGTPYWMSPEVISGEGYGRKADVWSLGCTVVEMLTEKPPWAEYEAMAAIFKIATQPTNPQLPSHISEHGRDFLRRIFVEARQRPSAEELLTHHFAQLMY

For assay [2], the target named is T2, Serine/threonine-protein kinase 4 (Homo sapiens, UniProt Q13043).
T2 sequence (Q13043 whole entry): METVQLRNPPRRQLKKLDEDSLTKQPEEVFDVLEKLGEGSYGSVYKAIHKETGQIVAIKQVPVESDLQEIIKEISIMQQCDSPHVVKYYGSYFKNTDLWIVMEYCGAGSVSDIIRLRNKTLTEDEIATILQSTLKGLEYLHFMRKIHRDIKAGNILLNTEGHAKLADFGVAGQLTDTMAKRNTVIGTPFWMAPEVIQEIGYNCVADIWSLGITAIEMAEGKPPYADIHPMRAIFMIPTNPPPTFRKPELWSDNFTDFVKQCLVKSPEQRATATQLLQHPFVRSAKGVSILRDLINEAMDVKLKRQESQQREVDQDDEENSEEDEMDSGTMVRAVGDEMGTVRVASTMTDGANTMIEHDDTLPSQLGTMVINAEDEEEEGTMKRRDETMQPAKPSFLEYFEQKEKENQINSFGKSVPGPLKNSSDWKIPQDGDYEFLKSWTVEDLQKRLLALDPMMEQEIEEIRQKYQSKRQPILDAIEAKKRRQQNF

In assay [3] the target is Mitogen-activated protein kinase kinase kinase 1 (Homo sapiens, UniProt Q13233).
Mitogen-activated protein kinase kinase kinase 1, sequence (Q13233 whole entry): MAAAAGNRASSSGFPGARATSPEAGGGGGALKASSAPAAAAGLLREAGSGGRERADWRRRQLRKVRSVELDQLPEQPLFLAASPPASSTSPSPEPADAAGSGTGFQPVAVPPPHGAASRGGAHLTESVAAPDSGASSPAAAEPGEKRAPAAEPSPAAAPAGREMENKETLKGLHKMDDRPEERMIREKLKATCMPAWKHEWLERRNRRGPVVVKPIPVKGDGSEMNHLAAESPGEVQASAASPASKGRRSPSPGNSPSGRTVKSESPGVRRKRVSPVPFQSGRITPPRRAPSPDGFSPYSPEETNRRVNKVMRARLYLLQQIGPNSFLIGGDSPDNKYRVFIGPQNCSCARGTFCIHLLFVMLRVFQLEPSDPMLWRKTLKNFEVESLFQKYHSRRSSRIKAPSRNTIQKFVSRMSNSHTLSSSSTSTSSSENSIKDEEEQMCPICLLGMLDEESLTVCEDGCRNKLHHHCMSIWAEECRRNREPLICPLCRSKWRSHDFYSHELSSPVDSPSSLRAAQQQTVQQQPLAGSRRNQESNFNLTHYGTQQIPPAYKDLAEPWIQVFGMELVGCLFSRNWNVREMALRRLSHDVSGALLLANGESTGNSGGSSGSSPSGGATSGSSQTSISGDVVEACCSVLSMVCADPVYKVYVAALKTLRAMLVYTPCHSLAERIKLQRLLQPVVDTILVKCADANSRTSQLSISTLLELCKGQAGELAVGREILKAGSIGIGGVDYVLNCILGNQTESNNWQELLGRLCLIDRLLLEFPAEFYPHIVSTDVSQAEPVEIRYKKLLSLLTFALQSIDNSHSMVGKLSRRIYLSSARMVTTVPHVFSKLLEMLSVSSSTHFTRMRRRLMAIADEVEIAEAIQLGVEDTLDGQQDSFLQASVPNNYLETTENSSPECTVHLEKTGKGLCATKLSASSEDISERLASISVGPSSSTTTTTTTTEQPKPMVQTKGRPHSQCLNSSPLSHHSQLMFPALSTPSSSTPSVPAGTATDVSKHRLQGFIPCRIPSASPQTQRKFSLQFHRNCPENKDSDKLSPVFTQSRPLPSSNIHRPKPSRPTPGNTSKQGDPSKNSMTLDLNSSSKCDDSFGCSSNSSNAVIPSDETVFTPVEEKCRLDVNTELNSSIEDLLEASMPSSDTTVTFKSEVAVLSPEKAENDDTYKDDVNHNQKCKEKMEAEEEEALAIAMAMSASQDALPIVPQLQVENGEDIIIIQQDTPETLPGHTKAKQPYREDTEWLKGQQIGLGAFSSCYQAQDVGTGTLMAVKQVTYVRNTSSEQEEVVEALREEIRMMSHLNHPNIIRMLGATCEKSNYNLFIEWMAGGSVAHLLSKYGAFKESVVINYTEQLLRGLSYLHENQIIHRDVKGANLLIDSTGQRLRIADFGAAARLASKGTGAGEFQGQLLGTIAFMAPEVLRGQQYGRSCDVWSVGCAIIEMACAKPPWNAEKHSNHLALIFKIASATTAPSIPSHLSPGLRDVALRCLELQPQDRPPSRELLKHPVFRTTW
Assay [4] concerns the target Dual specificity protein kinase CLK3 (Homo sapiens, UniProt P49761). The assay is classed as subcellular, K-562, COLO 205, SK-N-BE(2) and MV-4-11, Cell lysate. The conditions noted are these: read-out: Kd apparent.
For assay [5], the target named is Cyclin-dependent kinase 17 (Homo sapiens, UniProt Q00537).
The target in a further assay is Ephrin type-A receptor 2 (Homo sapiens, UniProt P29317).
Ephrin type-A receptor 2, sequence (P29317 whole entry, the tested form may be a part): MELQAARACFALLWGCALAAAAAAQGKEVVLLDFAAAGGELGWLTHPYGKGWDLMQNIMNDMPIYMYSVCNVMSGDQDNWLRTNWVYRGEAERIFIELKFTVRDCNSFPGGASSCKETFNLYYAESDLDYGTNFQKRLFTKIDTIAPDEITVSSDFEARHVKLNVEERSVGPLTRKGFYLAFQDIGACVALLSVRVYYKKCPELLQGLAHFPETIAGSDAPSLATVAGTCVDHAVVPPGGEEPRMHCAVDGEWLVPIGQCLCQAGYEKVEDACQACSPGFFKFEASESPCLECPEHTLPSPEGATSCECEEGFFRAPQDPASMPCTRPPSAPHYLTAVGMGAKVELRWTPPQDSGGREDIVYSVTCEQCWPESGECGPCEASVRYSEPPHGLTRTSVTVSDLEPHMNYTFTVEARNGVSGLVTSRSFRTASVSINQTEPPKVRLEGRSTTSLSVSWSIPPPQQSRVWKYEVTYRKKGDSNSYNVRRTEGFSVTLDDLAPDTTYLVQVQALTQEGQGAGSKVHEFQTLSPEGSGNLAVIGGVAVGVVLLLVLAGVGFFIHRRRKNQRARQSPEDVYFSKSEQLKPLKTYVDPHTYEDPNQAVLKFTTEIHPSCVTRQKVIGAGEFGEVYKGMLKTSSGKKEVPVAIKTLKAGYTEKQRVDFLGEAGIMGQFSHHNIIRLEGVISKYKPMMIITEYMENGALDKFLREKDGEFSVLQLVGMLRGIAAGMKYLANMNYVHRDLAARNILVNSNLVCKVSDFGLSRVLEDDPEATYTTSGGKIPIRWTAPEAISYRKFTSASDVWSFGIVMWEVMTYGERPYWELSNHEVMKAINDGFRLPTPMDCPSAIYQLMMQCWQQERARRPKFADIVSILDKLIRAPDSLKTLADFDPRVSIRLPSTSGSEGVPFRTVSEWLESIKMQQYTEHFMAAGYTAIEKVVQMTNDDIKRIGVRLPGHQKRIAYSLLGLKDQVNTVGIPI
The target in assay [6] is Uncharacterized aarF domain-containing protein kinase 5 (Homo sapiens, UniProt Q3MIX3).
Assay [7] deals with Serine/threonine-protein kinase pim-2 (Homo sapiens, UniProt Q9P1W9).
Serine/threonine-protein kinase pim-2, sequence (Q9P1W9 whole entry): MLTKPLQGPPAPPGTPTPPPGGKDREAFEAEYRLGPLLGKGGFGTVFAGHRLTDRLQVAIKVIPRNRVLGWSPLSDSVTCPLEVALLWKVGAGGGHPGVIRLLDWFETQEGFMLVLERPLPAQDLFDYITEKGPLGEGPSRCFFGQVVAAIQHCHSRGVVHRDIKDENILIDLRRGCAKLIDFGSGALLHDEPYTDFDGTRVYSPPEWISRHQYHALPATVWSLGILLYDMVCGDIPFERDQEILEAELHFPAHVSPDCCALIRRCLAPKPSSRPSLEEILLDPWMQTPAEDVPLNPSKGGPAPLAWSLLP
Assay [8] concerns the target High affinity nerve growth factor receptor (Homo sapiens, UniProt P04629).
Assay [9] has as its target Dual specificity mitogen-activated protein kinase kinase 1 (Homo sapiens, UniProt Q02750).
Assay [10] has as its target Hepatocyte growth factor receptor (Homo sapiens, UniProt P08581).
Assay [11] addresses Rho-associated protein kinase 1 (Homo sapiens, UniProt Q13464).
The target of assay [12] is T3, Receptor-type tyrosine-protein kinase FLT3 (Homo sapiens, UniProt P36888).
T3 sequence (P36888 whole entry): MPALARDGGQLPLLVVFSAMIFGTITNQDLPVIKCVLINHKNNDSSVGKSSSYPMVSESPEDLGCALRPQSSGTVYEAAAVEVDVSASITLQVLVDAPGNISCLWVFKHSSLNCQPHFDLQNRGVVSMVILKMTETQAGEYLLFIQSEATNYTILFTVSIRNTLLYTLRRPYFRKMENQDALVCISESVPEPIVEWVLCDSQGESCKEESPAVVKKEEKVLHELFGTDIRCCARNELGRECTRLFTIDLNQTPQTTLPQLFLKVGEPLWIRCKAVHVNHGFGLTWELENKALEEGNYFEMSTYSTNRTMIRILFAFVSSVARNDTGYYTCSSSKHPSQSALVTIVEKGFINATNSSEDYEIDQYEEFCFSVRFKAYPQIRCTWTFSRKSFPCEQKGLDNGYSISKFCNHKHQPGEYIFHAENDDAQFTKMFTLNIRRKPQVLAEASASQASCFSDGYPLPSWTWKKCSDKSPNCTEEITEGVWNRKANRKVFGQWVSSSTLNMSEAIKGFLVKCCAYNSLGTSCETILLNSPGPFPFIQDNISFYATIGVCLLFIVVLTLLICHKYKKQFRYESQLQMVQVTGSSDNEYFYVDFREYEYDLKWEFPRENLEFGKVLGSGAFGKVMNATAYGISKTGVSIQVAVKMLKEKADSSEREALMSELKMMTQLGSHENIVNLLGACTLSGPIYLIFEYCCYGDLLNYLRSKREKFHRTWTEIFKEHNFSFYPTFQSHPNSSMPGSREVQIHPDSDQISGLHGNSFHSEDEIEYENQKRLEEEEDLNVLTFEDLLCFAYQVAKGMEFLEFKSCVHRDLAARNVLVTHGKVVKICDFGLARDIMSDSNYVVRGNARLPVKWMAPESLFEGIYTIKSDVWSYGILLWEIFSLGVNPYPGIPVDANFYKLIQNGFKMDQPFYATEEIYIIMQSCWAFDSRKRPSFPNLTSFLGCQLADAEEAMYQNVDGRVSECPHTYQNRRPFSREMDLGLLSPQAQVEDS

The target in assay [13] is Protein kinase C theta type (Homo sapiens, UniProt Q04759).
Note: in the data inactive means no Kd found up to 30 µM.

High affinity nerve growth factor receptor, sequence (P04629 whole entry): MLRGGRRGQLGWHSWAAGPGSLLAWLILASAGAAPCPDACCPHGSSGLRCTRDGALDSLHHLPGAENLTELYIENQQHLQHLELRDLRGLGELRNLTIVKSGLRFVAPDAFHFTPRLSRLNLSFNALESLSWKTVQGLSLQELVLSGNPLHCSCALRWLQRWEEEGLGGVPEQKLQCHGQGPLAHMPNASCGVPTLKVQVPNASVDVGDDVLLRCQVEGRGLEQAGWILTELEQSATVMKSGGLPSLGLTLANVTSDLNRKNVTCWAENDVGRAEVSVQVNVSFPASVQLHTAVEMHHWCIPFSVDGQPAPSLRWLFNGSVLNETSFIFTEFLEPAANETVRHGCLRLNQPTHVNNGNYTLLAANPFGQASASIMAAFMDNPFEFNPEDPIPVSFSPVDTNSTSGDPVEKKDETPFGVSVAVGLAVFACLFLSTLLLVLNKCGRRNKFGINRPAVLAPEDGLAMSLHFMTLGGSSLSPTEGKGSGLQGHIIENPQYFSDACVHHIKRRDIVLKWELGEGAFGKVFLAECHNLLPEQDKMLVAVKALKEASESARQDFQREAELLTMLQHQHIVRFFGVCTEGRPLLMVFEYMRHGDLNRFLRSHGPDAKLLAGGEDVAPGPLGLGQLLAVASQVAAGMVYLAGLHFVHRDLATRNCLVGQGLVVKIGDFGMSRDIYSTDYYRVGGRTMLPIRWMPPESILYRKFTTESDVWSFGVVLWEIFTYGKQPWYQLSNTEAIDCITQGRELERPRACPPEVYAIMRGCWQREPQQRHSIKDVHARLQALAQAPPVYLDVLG
Rho-associated protein kinase 1, sequence (Q13464 whole entry): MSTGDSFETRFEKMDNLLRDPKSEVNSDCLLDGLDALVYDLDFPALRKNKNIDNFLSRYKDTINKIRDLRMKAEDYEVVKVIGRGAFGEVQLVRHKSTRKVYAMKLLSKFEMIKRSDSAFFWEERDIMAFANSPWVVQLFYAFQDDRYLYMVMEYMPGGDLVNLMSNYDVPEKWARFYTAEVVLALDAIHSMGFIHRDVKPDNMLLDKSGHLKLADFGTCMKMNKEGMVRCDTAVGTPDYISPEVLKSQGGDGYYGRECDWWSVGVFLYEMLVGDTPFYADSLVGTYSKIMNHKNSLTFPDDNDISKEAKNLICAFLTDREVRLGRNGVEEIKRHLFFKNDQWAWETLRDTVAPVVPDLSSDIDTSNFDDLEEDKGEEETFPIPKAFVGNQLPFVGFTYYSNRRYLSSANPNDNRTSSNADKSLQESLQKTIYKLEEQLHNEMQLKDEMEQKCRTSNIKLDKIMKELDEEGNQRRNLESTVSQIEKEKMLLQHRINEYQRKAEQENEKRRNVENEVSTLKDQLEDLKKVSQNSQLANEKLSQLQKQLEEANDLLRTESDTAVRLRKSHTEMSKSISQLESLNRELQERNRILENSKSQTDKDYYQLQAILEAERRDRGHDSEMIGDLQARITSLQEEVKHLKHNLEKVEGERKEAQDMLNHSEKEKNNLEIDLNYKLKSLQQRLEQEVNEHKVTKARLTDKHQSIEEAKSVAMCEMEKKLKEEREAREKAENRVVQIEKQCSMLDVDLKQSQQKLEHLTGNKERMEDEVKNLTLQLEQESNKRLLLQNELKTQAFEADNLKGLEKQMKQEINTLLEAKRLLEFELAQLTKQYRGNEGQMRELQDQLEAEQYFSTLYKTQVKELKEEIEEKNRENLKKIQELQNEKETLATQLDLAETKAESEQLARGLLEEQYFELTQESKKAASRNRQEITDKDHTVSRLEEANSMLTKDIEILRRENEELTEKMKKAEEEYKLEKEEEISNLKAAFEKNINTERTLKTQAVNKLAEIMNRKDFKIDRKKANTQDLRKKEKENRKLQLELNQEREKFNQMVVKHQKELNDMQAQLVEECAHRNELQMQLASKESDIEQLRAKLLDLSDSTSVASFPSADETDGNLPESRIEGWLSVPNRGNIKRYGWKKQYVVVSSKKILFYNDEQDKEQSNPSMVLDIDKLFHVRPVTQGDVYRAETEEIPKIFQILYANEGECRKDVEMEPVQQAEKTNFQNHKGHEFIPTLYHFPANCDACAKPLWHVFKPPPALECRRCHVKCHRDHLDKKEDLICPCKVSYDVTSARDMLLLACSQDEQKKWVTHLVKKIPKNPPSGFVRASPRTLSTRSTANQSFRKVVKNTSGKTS

As for `C=CCn1c(=O)c2cnc(Nc3ccc(N4CCN(C)CC4)cc3)nc2n1-c1cccc(C(C)(C)O)n1` [ADAVOSERTIB], the Kd (in [1]; in [2]; in [3]; in assay [4]; in assay [5]; on Ephrin type-A receptor 2) was > 30 µM (inactive) throughout. Also, the Kd in assay [6] and in assay [7] was > 30 µM (inactive) in each case.

On to `CC1(COc2ccc3c(c2)ncn3-c2ccc3cccc(N4CCC(N)CC4)c3n2)COC1` [CRENOLANIB], for which the Kd was > 30 µM (inactive) in [1]; 0.702 µM (active) in [2]; > 30 µM (inactive) in assay [3]; 0.008 µM (active) in assay [8]; > 30 µM (inactive) in [4]; > 30 µM (inactive) in [9]. For the same compound, the Kd (in [5]; in assay [10]; in [11]; at Ephrin type-A receptor 2; in [6]) was > 30 µM (inactive) each time.

For `O=C(O)c1ccc2c(c1)nc(Nc1cccc(Cl)c1)c1ccncc12` [SILMITASERTIB], the Kd in assay [1] is > 30 µM (inactive); in assay [2], > 30 µM (inactive); in [3] it was > 30 µM (inactive); in [8] it was > 30 µM (inactive); in assay [4], 0.01 µM (active); in [9] it was > 30 µM (inactive). Moreover, the Kd (in assay [5]; in [10]; on Ephrin type-A receptor 2) was > 30 µM (inactive) throughout.

In the case of `O=S(=O)(c1cccc2c(O)nccc12)N1CCCNCC1` [HYDROXYFASUDIL], the Kd in [1], in [2], in [3], in assay [8], in [4] and in assay [9] was > 30 µM (inactive) each time. Also, the Kd (in assay [5]; in [12]; in assay [10]; in assay [13]; on Ephrin type-A receptor 2; in assay [6]) was > 30 µM (inactive) throughout. Besides, the Kd in [7] was > 30 µM (inactive).

For `C=CC(=O)Nc1cc(Nc2nccc(-c3cn(C)c4ccccc34)n2)c(OC)cc1N(C)CCN(C)C` [OSIMERTINIB], the Kd in [1], in assay [2], in assay [3], in assay [8], in [4] and in assay [9] was > 30 µM (inactive) each time. Further, the Kd (in [5]; in [12]; in assay [11]; in assay [13]; at Ephrin type-A receptor 2) was > 30 µM (inactive) throughout.

On to `Cn1cc(-c2[nH]c3cc(NC(=O)[C@H](N)C4CCCCC4)cc4c3c2C=NNC4=O)cn1`, for which the Kd in assay [1], in [2], in [8], in assay [4], in assay [9] and in [5] was > 30 µM (inactive) throughout. Besides, the Kd in assay [12] is 0.05 µM (active); in assay [10], > 30 µM (inactive); in assay [11], > 30 µM (inactive); in assay [13] it was > 30 µM (inactive); on Ephrin type-A receptor 2, > 30 µM (inactive); in assay [6], > 30 µM (inactive).

Regarding `COCCN1CCN(Cc2ccc(-c3n[nH]c4c3C(=O)c3c(NC(=O)NN5CCOCC5)cccc3-4)cc2)CC1` [RGB-286638], the Kd in assay [1], in [2], in assay [3], in assay [8], in assay [4] and in [9] was > 30 µM (inactive) each time. In addition, the Kd in assay [12] is 0.323 µM (active); in [10], > 30 µM (inactive); in [11] it was > 30 µM (inactive); in [13], > 30 µM (inactive); at Ephrin type-A receptor 2, > 30 µM (inactive); in assay [6], > 30 µM (inactive). Moreover, in [7], the Kd is 0.042 µM (active).

Take `CN1CCN(c2nc(C3=C(c4c[nH]c5ccccc45)C(=O)NC3=O)c3ccccc3n2)CC1` [SOTRASTAURIN]: the Kd in [1], in assay [2], in assay [3], in assay [8], in assay [4] and in assay [9] was > 30 µM (inactive) throughout. The Kd in [5] is > 30 µM (inactive); in assay [12], > 30 µM (inactive); in [10] it was > 30 µM (inactive); in [11] it was > 30 µM (inactive); in [13], 0.013 µM (active); on Ephrin type-A receptor 2, > 30 µM (inactive). The Kd in assay [6] and in [7] was > 30 µM (inactive) each time.

For `CN(c1ncccc1CNc1nc(Nc2ccc3c(c2)CC(=O)N3)ncc1C(F)(F)F)S(C)(=O)=O` [PF-00562271], the Kd in assay [1] is > 30 µM (inactive); in [2], 5.93 µM (active); in [3], > 30 µM (inactive); in assay [4] it was > 30 µM (inactive); in assay [5], 0.089 µM (active); in [6] it was > 30 µM (inactive).

With `COc1cc2nccc(Oc3ccc(NC(=O)C4(C(=O)Nc5ccc(F)cc5)CC4)cc3)c2cc1OC` [CABOZANTINIB], the Kd in [1] was > 30 µM (inactive); in assay [2], > 30 µM (inactive); in [3] it was > 30 µM (inactive); in [8] it was 4.11 µM (active); in assay [4], > 30 µM (inactive); in assay [9] it was > 30 µM (inactive). For the same compound, the Kd in assay [5] is > 30 µM (inactive); in assay [11], > 30 µM (inactive); in [13] it was > 30 µM (inactive); on Ephrin type-A receptor 2 it was 0.746 µM (active).
